Assay results reported in patent publication US10858348B2, “Salt forms of 4-cyano-N-(4,4-dimethylcyclohex-1-en-1-yl)-6-(2,2,6,6-Tetr amethyltetrahydro-2H-pyran-4-yl)pyridin-3-yl)-1H-imidazole-2-carboximide” (Janssen Pharmaceutica NV, priority 2016, dated 2020).
Converted amounts (≈) assume the structure as drawn.

Assay: physchem
Type: physicochemical
Conditions: organic solvent or mixture

CC1(C)CC=C(c2nc(C3CC(C)(C)OC(C)(C)C3)ccc2NC(=O)c2nc(C#N)c[nH]2)CC1 [Compound A, 4-cyano-N-[2-(4,4-dimethylcyclohex-1-en-1-yl)-6-(2,2,6,6-tetramethyltetrahydro-2H-pyran-4-yl)pyridin-3-yl]-1H-imidazole-2-carboxamide]
solubility: ~130 mg/mL (≈ 282 mM)
